Our source for the IC50 values is US8415469B2, “Compounds and methods for kinase modulation, and indications therefor” (Plexxikon Inc., priority 2005, dated 2013).

SMILES strings stand for the structures.

T1 sequence (P15056 with tags, fused parts or gaps V600E): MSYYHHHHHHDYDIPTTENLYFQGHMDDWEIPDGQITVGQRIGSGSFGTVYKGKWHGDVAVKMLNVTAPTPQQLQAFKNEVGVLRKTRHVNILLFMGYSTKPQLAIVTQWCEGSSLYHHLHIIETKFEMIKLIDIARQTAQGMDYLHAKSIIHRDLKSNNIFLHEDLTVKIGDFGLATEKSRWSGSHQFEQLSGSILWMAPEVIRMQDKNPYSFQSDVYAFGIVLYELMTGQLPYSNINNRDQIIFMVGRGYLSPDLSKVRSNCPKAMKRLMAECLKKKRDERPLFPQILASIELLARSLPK

The first assay has as its target T1, B-Raf V600E (Homo sapiens, UniProt P15056, V600E).
T1 construct: P4254. pFastBacBD-CDC37 BRAF D437-K722-X, V600E; His6 with pFastBac HT leader (TEV site) (N); made in house; host or cells: Sf9 (baculovirus; chaperone CDC37 co-expressed)
Kind of assay: AlphaScreen kinase assay, B-Raf V600E. Type of assay: biochemical. Conditions: read-out: IC50, activity toward kinase B-Raf V600E.
As usually defined, the IC50 is the concentration needed to halve the response being measured. On to `Cc1cc(C)cc(-c2ccnc3[nH]cc(Sc4cccs4)c23)c1` [Compound P-0255], for which the IC50 is no more than 10 µM.
On to `Fc1cc(F)cc(-c2ccnc3[nH]cc(Sc4ccccc4)c23)c1` [Compound P-0311], for which the IC50 was no more than 10 µM.
As for `COc1ccccc1-c1c[nH]c2ncccc12` [Compound P-0358], the IC50 is no more than 10 µM.
Consider `c1ccc(Cc2nc(-c3ccnc4[nH]ccc34)no2)cc1` [Compound P-0381], for which the IC50 was no more than 10 µM.
For `CCC(C)Cc1c[nH]c2ncccc12` (centres unmarked) [Compound P-0386], the IC50 was no more than 10 µM.
Still for that read-out and setting: for `OCc1cccc(-c2ccnc3[nH]cc(Sc4ccc(Cl)cc4)c23)c1` [Compound P-0388] the value was no more than 10 µM.
In the case of `COC(c1ccc(Br)cc1)c1c[nH]c2ncccc12` (centres unmarked) [Compound P-0552], the IC50 was no more than 10 µM.
On to `O=C(c1cc([N+](=O)[O-])ccc1Cl)c1c[nH]c2ncccc12` [Compound P-0592], for which the IC50 was no more than 10 µM.
Take `OCc1cccc(-c2ccnc3[nH]cc(Sc4cc(Cl)cc(Cl)c4)c23)c1` [Compound P-0600]: the IC50 was no more than 10 µM.
Regarding `COC(=O)c1cccc(C#Cc2c[nH]c3ncc(-c4ccc(OC)c(OC)c4)cc23)c1` [Compound P-0646], the IC50 is no more than 10 µM.
Consider `FC(F)(F)c1cccc(-c2ccnc3[nH]cc(Sc4cccs4)c23)c1` [Compound P-0651], for which the IC50 was no more than 10 µM.
Turning to `COc1ccc(Cc2nc(-c3ccnc4[nH]ccc34)no2)cc1` [Compound P-0696], the IC50 is no more than 10 µM.
In the case of `Cn1ccc2cc(-c3c[nH]c4ncccc34)ccc21` [Compound P-0713], the IC50 is no more than 10 µM.
The same measure, in the same setting: in the case of `O=C(Nc1ccc(Cc2c[nH]c3ncccc23)cc1)c1ccccc1` [Compound P-0803] it was no more than 10 µM; in that of `O=[N+]([O-])c1cccc(Sc2c[nH]c3nccc(-c4cc(F)cc(F)c4)c23)c1` [Compound P-0816], no more than 10 µM.
Turning to `c1cnc2[nH]cc(-c3noc(CCC4CCCC4)n3)c2c1` [Compound P-0833], the IC50 is no more than 10 µM.
As for `COc1ccc(-c2c[nH]c3ncccc23)cc1OCc1ccccc1` [Compound P-0886], the IC50 is no more than 10 µM.
As to `Cc1cc(-c2nc(-c3ccnc4[nH]ccc34)no2)n(C(C)(C)C)n1` [Compound P-0893], the IC50 is no more than 10 µM.
For `Cc1nc2ccc(Nc3cnc4[nH]ccc4c3)cc2s1` [Compound P-1030], the half-inhibitory concentration (IC50) was no more than 10 µM.
`Fc1cccc(Nc2cnc3[nH]ccc3c2)c1` [Compound P-1035]: the IC50 is no more than 10 µM.
In the case of `CC(C)Oc1cccc(Nc2cnc3[nH]ccc3c2)c1` [Compound P-1049], the IC50 was no more than 10 µM.
Regarding `COc1ccc(S(=O)(=O)Nc2ccc(F)c(C(=O)c3c[nH]c4ncccc34)c2F)cc1OC` [Compound P-1090, N-[2,4-Difluoro-3-(1H-pyrrolo[2,3-b]pyridine-3-carbonyl)-phenyl]-3,4-dimethoxy-benzenesulfonamide], the half-maximal inhibitory concentration (IC50) was no more than 10 µM.
On to `Fc1ccc(Nc2cnc3[nH]ccc3c2)cc1` [Compound P-1091], for which the IC50 is no more than 10 µM.
Regarding `CCC(C)c1ccc(Nc2cnc3[nH]ccc3c2)cc1` (centres unmarked) [Compound P-1128], the IC50 was no more than 10 µM.
Regarding `COc1ccc(OC)c(S(=O)(=O)Nc2ccc(F)c(C(=O)c3c[nH]c4ncccc34)c2F)c1` [Compound P-1131, N-[2,4-Difluoro-3-(1H-pyrrolo[2,3-b]pyridine-3-carbonyl)-phenyl]-2,5-dimethoxy-benzenesulfonamide], the IC50 is no more than 10 µM.
`CC(C)(C)OC(=O)Nc1ccc(Cl)c(C(O)c2c[nH]c3ncccc23)c1F` (centres unmarked) [Compound P-1140]: the IC50 is no more than 10 µM.
Take `Cn1nc(C(C)(C)C)cc1-c1nc(-c2c[nH]c3ncccc23)no1` [Compound P-1177]: the IC50 was no more than 10 µM.
In the case of `FC(F)(F)c1ccc(-c2c[nH]c3ncccc23)cc1` [Compound P-1179], the half-maximal inhibitory concentration (IC50) was no more than 10 µM.
Still for that read-out and setting: in the case of `Oc1ccc(F)c(C(O)c2c[nH]c3ncc(Br)cc23)c1F` (centres unmarked) [Compound P-1180, 3-[(5-Bromo-1H-pyrrolo[2,3-b]pyridin-3-yl)-hydroxy-methyl]-2,4-difluoro-phenol] it was no more than 10 µM; in that of `COC(c1ccc(N(Cc2ccc(Cl)cc2)C(=O)OC(C)(C)C)nc1)c1c[nH]c2ncccc12` (centres unmarked) [Compound P-1183], no more than 10 µM.
For the compound `CC(C)(C)c1ccc(OCc2nc(-c3ccnc4[nH]ccc34)no2)cc1` [Compound P-1187], the IC50 was no more than 10 µM.
For the compound `CC(C)(C)OC(=O)Nc1ccc(-c2c[nH]c3ncccc23)cc1` [Compound P-1195], the IC50 was no more than 10 µM.
Regarding `N#Cc1ccc(CCc2c[nH]c3ncccc23)cc1` [Compound P-1199], the IC50 was no more than 10 µM.
Regarding `CCCCN(c1ccc(F)c(Cc2c[nH]c3ncc(-c4cccnc4)cc23)c1F)S(=O)(=O)c1ccc(C(F)(F)F)cc1` [Compound P-1444], the IC50 is no more than 10 µM.
Consider `COc1cnc2[nH]cc(C(O)c3c(F)ccc(NS(=O)(=O)c4ccc(C(F)(F)F)cc4)c3F)c2c1` (centres unmarked) [Compound P-1540], for which the IC50 is no more than 10 µM.
The same measure, in the same setting: for `CCCS(=O)(=O)Nc1cccc(C(O)c2c[nH]c3ncc(Br)cc23)c1C` (centres unmarked) [Compound P-1607] the value was no more than 10 µM; for `CN(C)S(=O)(=O)N(C)c1ccc(F)c(C(=O)c2c[nH]c3ncc(Cl)cc23)c1F` [Compound P-1666], no more than 10 µM; for `O=C(c1c(F)ccc(NS(=O)(=O)c2ccc(-c3cnco3)cc2)c1F)c1c[nH]c2ncc(Cl)cc12` [Compound P-1843, N-[3-(5-Chloro-1H-pyrrolo[2,3-b]pyridine-3-carbonyl)-2,4-difluoro-phenyl]-4-oxazol-5-yl-benzenesulfonamide], no more than 10 µM.

For another assay, the target named is T2, FGFR1 (Homo sapiens, UniProt P11362, C488A/C584S).
T2 construct: P1351.pET N6 BI-PTP FGFR A458-E765-X C488A, C584S; made in house; host or cells: E. coli (PTP1B co-expressed)
T2 sequence (P11362 458-765 C488A/C584S): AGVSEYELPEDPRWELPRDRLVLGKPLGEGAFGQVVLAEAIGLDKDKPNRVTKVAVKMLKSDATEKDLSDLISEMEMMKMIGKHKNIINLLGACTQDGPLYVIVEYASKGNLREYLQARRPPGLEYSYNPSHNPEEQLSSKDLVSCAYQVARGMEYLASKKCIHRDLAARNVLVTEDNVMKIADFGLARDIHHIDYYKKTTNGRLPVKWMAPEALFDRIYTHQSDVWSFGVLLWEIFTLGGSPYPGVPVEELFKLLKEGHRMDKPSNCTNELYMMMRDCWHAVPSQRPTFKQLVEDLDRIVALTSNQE
Kind of assay: AlphaScreen kinase assay, FGFR1. Type of assay: biochemical. The note with it: read-out: IC50, activity toward kinase FGFR.
In the case of `O=C(c1cccc([N+](=O)[O-])c1)c1c[nH]c2ncccc12` [Compound P-0219], the half-maximal inhibitory concentration (IC50) was no more than 10 µM.
Regarding `CC(C)Nc1ccc(C(=O)c2c[nH]c3ncccc23)cn1` [Compound P-0227], the IC50 is no more than 10 µM.
For the compound `O=C(c1cccc(Cl)c1Cl)c1c[nH]c2ncc(Br)cc12` [Compound P-0294], the IC50 is no more than 10 µM.
For the compound `COc1cccc(Cc2c[nH]c3ncc(-c4ccc(C(=O)C(F)(F)F)[nH]4)cc23)c1` [Compound P-0309], the IC50 was no more than 10 µM.
Take `Cc1ccc(Cc2c[nH]c3ncccc23)cc1C` [Compound P-0368]: the IC50 is no more than 10 µM.
For the compound `Fc1cc(F)cc(Cc2c[nH]c3ncccc23)c1` [Compound P-0374], the IC50 was no more than 10 µM.
For the compound `c1cnc2[nH]cc(Cc3ccc(NCC4CC4)nc3)c2c1` [Compound P-0400], the IC50 was no more than 10 µM.
On to `Cc1ccc(F)cc1C(=O)c1c[nH]c2ncc(Br)cc12` [Compound P-0424], for which the IC50 was no more than 10 µM.
With `COc1cccc(C(=O)c2c[nH]c3ncc(-c4cc(F)cc(F)c4)cc23)c1` [Compound P-0474], the IC50 was no more than 10 µM.
Regarding `O=C(c1ccc2ccccc2n1)c1c[nH]c2ncccc12` [Compound P-0479], the IC50 is no more than 10 µM.
Take `Cc1cc(Cc2c[nH]c3ncccc23)ccc1F` [Compound P-0510]: the 50% inhibitory concentration (IC50) is no more than 10 µM.
Regarding `c1ccc2cc(Cc3c[nH]c4ncccc34)ccc2c1` [Compound P-0575], the IC50 was no more than 10 µM.
`Brc1ccc(Cc2c[nH]c3ncccc23)cc1` [Compound P-0615]: the 50% inhibitory concentration (IC50) is no more than 10 µM.
Regarding `CC(C)(C)c1ccc(Cc2c[nH]c3ncccc23)cc1` [Compound P-0828], the half-maximal inhibitory concentration (IC50) is no more than 10 µM.
For the compound `COc1cccc(Cc2c[nH]c3nccc(-c4cccc(OC)c4)c23)c1` [Compound P-0979], the IC50 is no more than 10 µM.
In the case of `O=C(c1c(F)ccc([N+](=O)[O-])c1F)c1c[nH]c2ncc(Br)cc12` [Compound P-1182], the IC50 was no more than 10 µM.
Consider `O=C(c1c(F)ccc(Cl)c1F)c1c[nH]c2ncccc12` [Compound P-1272], for which the IC50 is no more than 10 µM.
In the case of `CCCNS(=O)(=O)c1ccc(NCC)c(C(=O)c2c[nH]c3ncccc23)c1F` [Compound P-1273], the concentration for half-maximal inhibition (IC50) is no more than 10 µM.
Take `Cc1ccc(F)c(C(=O)c2c[nH]c3ncccc23)c1F` [Compound P-1274]: the IC50 was no more than 10 µM.
As to `COc1ccc([N+](=O)[O-])cc1C(OC)c1c[nH]c2ncc(Br)cc12` (centres unmarked) [Compound P-1287], the IC50 was no more than 10 µM.
Take `COc1ccc(Cc2c[nH]c3ncc(Br)cc23)c(F)c1` [Compound P-1322]: the IC50 was no more than 10 µM.
As for `COCCOc1ccc(F)c(C(=O)c2c[nH]c3ncc(Br)cc23)c1F` [Compound P-1453, (5-Bromo-1H-pyrrolo[2,3-b]pyridin-3-yl)-[2,6-difluoro-3-(2-methoxy-ethoxy)-phenyl]-methanone], the IC50 is no more than 10 µM.
As to `COCCOc1ccc(F)c(Cc2c[nH]c3ncc(Br)cc23)c1F` [Compound P-1454, 5-Bromo-3-[2,6-difluoro-3-(2-methoxy-ethoxy)-benzyl]-1H-pyrrolo[2,3-b]pyridine], the IC50 is no more than 10 µM.
For the compound `Fc1ccc(OCc2ccccc2)c(F)c1Cc1c[nH]c2ncc(-c3cccnc3)cc12` [Compound P-1455, 3-(3-Benzyloxy-2,6-difluoro-benzyl)-5-pyridin-3-yl-1H-pyrrolo[2,3-b]pyridine], the IC50 was no more than 10 µM.
For `O=C(c1c(F)ccc(OCc2ccccc2)c1F)c1c[nH]c2ncc(-c3cccnc3)cc12` [Compound P-1467, (3-Benzyloxy-2,6-difluoro-phenyl)-(5-pyridin-3-yl-1H-pyrrolo[2,3-b]pyridin-3-yl)-methanone], the IC50 is no more than 10 µM.
In the case of `OC(c1cccc2c1OC(F)(F)O2)c1c[nH]c2ncc(Br)cc12` (centres unmarked) [Compound P-1512], the IC50 was no more than 10 µM.
Turning to `O=C(c1c[nH]c2ncc(Br)cc12)c1cccc2c1ccn2S(=O)(=O)c1ccccc1` [Compound P-1524, (1-Benzenesulfonyl-1H-indol-4-yl)(5-bromo-1H-pyrrolo[2,3-b]pyridin-3-yl)-methanone], the IC50 is no more than 10 µM.
